Blank lines part the entries; values can stand above or below the molecule they belong to.
Assays:
[1] = Antioxidant assay, scavenging of DPPH free radicals; settings: for Antioxidant IC50: Table 2, synthesized curcuminoids, DPPH; for Antioxidant activity (DPPH free radical scavenging), in words: optical density change of DPPH radicals at 515 nm
Description: Kim et al., Neurosci Lett 303, 57 (2001) and Barik et al., Free Radic Biol Med 39, 811 (2005).
Using an antioxidant assay, the antioxidant potency of the compounds of the invention was evaluated. 1,1-Diphenyl-2-picrylhydrazyl (DPPH) is known to generate stable free radicals in aqueous and ethanolic solutions. The ability of the compounds of the invention to scavenge these free radicals was measured by observing the optical density change of DPPH radicals at 515 nm. Kim et al., Neurosci Lett 303, 57 (2001) and Barik et al., Free Radic Biol Med 39, 811 (2005).
The samples were prepared in various concentrations (200, 20, 2.0, and 0.2 μg/ml) by serial dilution of a stock solution (5 mg/ml) and were tested by the following procedure. Reaction mixtures containing test compounds (dissolved in DMSO) and 300 μM DPPH ethanolic solution in 96-well microtiter plates were incubated at 37° C. for 30 min. and absorbance was measured at 515 nm. Percent inhibition by sample treatment was determined by comparison with a DMSO-treated […] control group. IC50 values were determined from percent inhibition by sample. IC50 values denote the concentration of the tested compound that was required to scavenge 50% of the DPPH free radicals.

[2] = test system: IMR32 cells; experiment: MTT reduction assay, βA peptide-induced toxicity, IMR32 cells; type: cell-based, human
Description: (§1) The degree of βA insult was measured by 3-[4,5-dimethylthiazol-2-yl]-2,5-diphenyltetrazolium bromide (MTT) reduction assay. […] The detection of cell growth or cell death can be determined by observing the conversion of MTT to the colored product, MTT formazan, the concentration of which can be measured […] at 550 nm.
(§2) Cells were incubated in MTT solution (5 mg/ml) at 37° C. for 2 hours. During this time, cells were observed under a microscope every 15 min. Cells were incubated in Lysing buffer (100 μl) overnight at 37° C. Colorimetric determination of MTT reduction was made at 550 nm.
(§3) PC12 rat pheochromocytoma and IMR32 human neuroblastoma cells were obtained from the American Type Culture Collection (ATCC). HUVEC normal umbilical human vein endothelial cells were obtained from Clonetics (San Diego, Calif.). Cells were routinely cultured on a tissue culture plate (Corning, N.Y., N.Y.). PC12 cells were grown in high glucose Dulbecco's Modified Eagle Medium (DMEM), 10% horse serum, 5% fetal calf serum, and 1% penicillin/streptomycin. IMR32 cells were grown in 90% DMEM and 10% fetal calf serum with 1% penicillin/streptomycin. HUVEC cells were grown in EGM-2 Bullet Kit (Clonetics, San Diego, Calif.).

[3] = test system: PC12 cells; experiment: MTT reduction assay, βA peptide-induced toxicity, PC12 cells; type: cell-based, rat; settings: for Protection of PC12 cells from βA peptide insults (control study): even at 200 μg/ml, βA peptide(25-35) and βA peptide(1-42)
Description: as §1, §2, §3
PC12 cells were cultured routinely on polystyrene-coated Corning tissue culture plates. […] The 96-well plates were coated with rat tail collagen (Boehringer Mannheim) in order to promote uniform PC12 cell attachment and growth.

[4] = test system: cells treated with βA peptide; experiment: Protection of cells from βA peptide insult, statements in words (MTT assay, cells not singled out); type: cell-based; settings: MTT reduction assay; PC12, IMR32, HUVEC cells where named in the sentence
Description: as §1, §2

[5] = test system: HUVEC cells; experiment: MTT reduction assay, βA peptide-induced toxicity, HUVEC cells; type: cell-based, human
Description: as §1, §2, §3

[6] = Table 2, synthesized curcuminoids
[7] = Table 3, ginger-derived natural product compounds

Molecule: O=C(CCc1ccc(O)cc1)CC(=O)CCc1ccc(O)cc1 [Compound 9]
Antioxidant IC50 [1]: >200 µg/mL | Anti-βA peptide(1-42) ED50 IMR32 [2, 6]: 11.0 µg/mL | Anti-βA peptide(25-35) ED50 IMR32 [2, 6]: 12.0 µg/mL | Anti-βA peptide(1-42) ED50 PC12 [3, 6]: 9.0 µg/mL | Anti-βA peptide(25-35) ED50 PC12 [3, 6]: 10.0 µg/mL | Protection of cells from βA peptide-induced toxicity, in words [4]: protected

Molecule: CCCCC/C=C/C(=O)CCc1ccc(O)c(OC)c1 [Compound 12]
Antioxidant activity (DPPH free radical scavenging), in words [1]: None of these compounds exhibited significant antioxidant activity | Anti-βA peptide(25-35) ED50 IMR32 [2, 7]: 8.0 µg/mL | Anti-βA peptide(1-42) ED50 PC12 [3, 7]: 10 µg/mL | Anti-βA peptide(25-35) ED50 PC12 [3, 7]: 9.0 µg/mL | Protection of cells from βA peptide-induced toxicity, in words [4]: effectively protected | Anti-βA peptide(1-42) ED50 HUVEC [5, 7]: 18 µg/mL | Anti-βA peptide(25-35) ED50 HUVEC [5, 7]: 20 µg/mL

Molecule: CCCCCCCCC=CC(=O)CCc1ccc(O)cc1 [Compound 50, [9]-demethoxyshogaol]
Protection of cells from βA peptide-induced toxicity, in words [4]: effectively protected

Molecule: CCCCCCCC/C=C/C(=O)CCc1ccc(O)c(OC)c1 [Compound 13, [9]-shogaol]
Antioxidant activity (DPPH free radical scavenging), in words [1]: None of these compounds exhibited significant antioxidant activity | Anti-βA peptide(25-35) ED50 IMR32 [2, 7]: 2.0 µg/mL | Anti-βA peptide(1-42) ED50 PC12 [3, 7]: 4.0 µg/mL | Anti-βA peptide(25-35) ED50 PC12 [3, 7]: 3.0 µg/mL | Protection of cells from βA peptide-induced toxicity, in words [4]: effectively protected | Anti-βA peptide(1-42) ED50 HUVEC [5, 7]: 8.0 µg/mL | Anti-βA peptide(25-35) ED50 HUVEC [5, 7]: 8.0 µg/mL

Molecule: CC(C)(C)[C@]1(O)CC2OC(=O)CC23C(=O)OC2OC(=O)[C@H](O)C231 (single isomer, unassigned; (-)) [(−)-Bilobalide, reference compound]
Anti-βA peptide(1-42) ED50 IMR32 ([2]; Table 4, ginkgo compounds): toxic | Anti-βA peptide(25-35) ED50 IMR32 ([2]; Table 4, ginkgo compounds): toxic | Anti-βA peptide(1-42) ED50 PC12 ([3]; Table 4, ginkgo compounds): toxic | Anti-βA peptide(25-35) ED50 PC12 ([3]; Table 4, ginkgo compounds): toxic | Protection of cells from βA peptide-induced toxicity, in words [4]: do not possess biological activity | Anti-βA peptide(1-42) ED50 HUVEC ([5]; Table 4, ginkgo compounds): toxic | Anti-βA peptide(25-35) ED50 HUVEC ([5]; Table 4, ginkgo compounds): toxic

Molecule: βA peptide (25-35): beta-amyloid peptide fragment 25-35 used as the toxic insult (GSNKGAIIGLM; Amyloid-beta protein 42; UniProt P05067 696-706, looked up, fragment) [reference compound]
ED50 of βA peptide toxicity to IMR32 cells ([2]; peptide alone): 3.0 µg/mL | ED50 of βA peptide toxicity to PC12 cells ([3]; peptide alone, collagen-coated 96-well plates): 1.0 µg/mL | ED50 of βA peptide toxicity to HUVEC cells ([5]; peptide alone): 6.0 µg/mL

Antioxidant IC50 [1]: >200 µg/mL
Molecule: COc1ccc(/C=C/C(=O)CC(=O)CCc2ccc(O)cc2)cc1 [Compound 10]
Anti-βA peptide(1-42) ED50 IMR32 [2, 6]: toxic | Anti-βA peptide(25-35) ED50 IMR32 [2, 6]: toxic | Anti-βA peptide(1-42) ED50 PC12 [3, 6]: toxic | Anti-βA peptide(25-35) ED50 PC12 [3, 6]: toxic | Protection of cells from βA peptide-induced toxicity, in words [4]: cytotoxic

Molecule: O=C1O[C@H]([C@@H](O)CO)C(O)=C1O [vitamin C, reference compound]
Protection of PC12 cells from βA peptide insults (control study) [3]: did not protect

Antioxidant IC50 [1]: >200 µg/mL
Molecule: O=C(CCc1ccccc1)CC(=O)CCc1ccc(O)cc1 [Compound 7]
Anti-βA peptide(1-42) ED50 IMR32 [2, 6]: toxic | Anti-βA peptide(25-35) ED50 IMR32 [2, 6]: toxic | Anti-βA peptide(1-42) ED50 PC12 [3, 6]: toxic | Anti-βA peptide(25-35) ED50 PC12 [3, 6]: toxic | Protection of cells from βA peptide-induced toxicity, in words [4]: cytotoxic

Molecule: CC1=C(/C=C/C(C)=C/C=C/C(C)=C/CO)C(C)(C)CCC1 [vitamin A, reference compound]
Protection of PC12 cells from βA peptide insults (control study) [3]: did not protect

Reference: patent publication US7728043B2, “Methods for treatment of beta-amyloid protein-induced ocular disease” (priority 1999, dated 2010)
